Measured values published in patent US12233140B2, “Hyperbranched polyglycerol-coated particles and methods of making and using thereof” (priority 2014, dated 2025).

What was measured:
[1] = Retention of IR-780 loaded NPs in the peritoneal cavity after IP administration (live imaging); details: free dye control
Description: Six BALB/c nude mice were divided into 2 groups, 3 mice per group. […] Each mouse received 100 μL NP suspensions. The fluorescence was monitored with live imaging (Xenogen Corp., Alameda, CA) over time. The quantification of fluorescence retained in intraperitoneal cavity over time was determined.
Each mouse received 100 μL of the nanoparticle suspension at 10 mg/mL. The fluorescence was monitored with live imaging (Xenogen, Alameda, CA) over time.

[2] = tested on: uterine papillary serous carcinoma (UPSC) cells; experiment: In vitro cytotoxicity on UPSC cells, 72 h (Cell Titer Blue); assay type: cell-based; details: 3 days
Description: UPSC cells (180 μL) were plated in each well of a 96 well plate at a density of 2,000/well and left in a 37° C. incubator overnight. […] The cells were incubated for 72 h and cell viability was quantified with Cell Titer Blue.

[3] = tested on: i.p. USC tumors (USC-ARK-2 xenografts); experiment: Survival and body weight of nude mice bearing intraperitoneal USC tumors, IP treatment; assay type: in vivo
Description: Forty BALB/c Nude mice (5-6 weeks old, Charles River Laboratories) were intraperitoneally injected with 1×10^6 UPSC cells. After 1 week, drug treatments were started with PBS control, blank PLA-HPGALD control and 3 EB formulations. […] Treatments were administrated intraperitoneally with a dose of EB (0.5 mg/kg) every week for 5 weeks. The body weights of the mice were measured twice a week. Animals were euthanized when the body weight loss exceeded 20%, or when other signals of sickness, such as breathing problems, failure to eat and drink, lethargy or abnormal posture, were observed.
BALB/c Nude mice (5-6 weeks old, Charles River Laboratories) were intraperitoneally injected with 1×10^6 USC cells. After 1 week, drug treatments were started with 8 animals in each group. […] In this experiment, treatments were administrated intraperitoneally with a 2.5 mg/kg dose of EB every week for 3 weeks. In another experiment, five groups were compared as described in Example 11.
The body weights of the mice were measured as described in Example 11.

[4] = Retention profile of EB in peritoneal cavity after IP injection (HPLC); details: 6 hr after a single IP dose, EB 2.5 mg/kg
Description: C57BL/6 mice (5-6 weeks old, Charles River Laboratories) were divided into three groups with 9 mice per group and one group with 3 mice. The group with 3 mice was used as a vehicle control. […] At each time point (6 hr, 1 d and 3 d), 3 mice from each group and one mouse from the 3-animal vehicle control group were euthanized and the peritoneal cavities washed with 5 mL acetonitrile for 3 times. The acetonitrile samples were centrifuged and the supernatant was collected and processed for HPLC analysis. EB concentration was determined with HPLC with C18 column with methanol/water (7:3) with UV detector set at 240 nm absorbance.

SMILES | time to complete clearance from the IP cavity [1] | in vitro cytotoxicity against UPSC cells [2] | animals surviving to 110 days ([3]; EB 0.5 mg/kg) | body weight ([3]; EB 2.5 mg/kg) | death due to toxicity ([3]; EB 2.5 mg/kg) | survival compared with PBS ([3]; EB 2.5 mg/kg IP weekly for 3 weeks) | toxicity (weight loss, diarrhea, bowel dilation) ([3]; FIG. 18B) | survival compared with PBS ([3]; five-group experiment, EB 0.5 mg/kg IP weekly for 5 weeks) | EB retained in the peritoneal cavity [4]
CCCN1C(=CC=C2CCCC(C=CC3=[N+](CCC)c4ccccc4C3(C)C)=C2Cl)C(C)(C)c2ccccc21.[I-] [Free dye, IR-780 iodide] | less than 4 hours |  |  |  |  |  |  |  | 
C/C(=C\c1csc(C)n1)[C@@H]1C[C@@H]2O[C@]2(C)CCC[C@H](C)[C@H](O)[C@@H](C)C(=O)C(C)(C)[C@@H](O)CC(=O)O1 [free EB, epothilone B] |  | highest toxicity | approximately 10% | weight loss | early death due to EB toxicity | only mice treated with the lower dosage showed significance | significant toxicity | showed significance | No EB was detected
